Laboratory results from article PMC8539420, “Discovery of a Potent and Selective JNK3 Inhibitor with Neuroprotective Effect Against Amyloid β-Induced Neurotoxicity in Primary Rat Neurons” (International Journal of Molecular Sciences, 2021).

Assays:
LYN = molecular target: T1, LYN (Homo sapiens, UniProt P07948); assay: Kinase panel screening 1 μM; assay type: biochemical; conditions: read-out: enzymatic inhibition LYN
T1 construct: purchased Reaction Biology Corp. (Kinase HotSpot)

caspase-3 = assay: Western blot of amyloid-β-induced caspase-3 activation (cleavage) in neurons; assay type: cell-based, rat; conditions: pre-treated 90 minutes, 10 μM amyloid-β1-42 24 hours
Excerpt: (§1) To establish whether the derived selective JNK3 inhibitor actually has the ability to protect neurons from amyloid β-induced neuronal cell death, which is known as the pathogenesis of Alzheimer’s disease, we performed cytotoxicity experiments using Aβ 42, which is known as the most toxic fragment of the amyloid protein. The amyloid-β is known to mainly cause apoptosis during cell death, so it was confirmed whether the derived selective JNK3 inhibitors affect the activation (cleavage) of caspase-3, which are apoptosis-related signaling substances. […] This means that selective JNK3 inhibitors can inhibit apoptosis signaling by amyloid-β in neurons, thereby inhibiting apoptosis. Additionally, we confirmed that JNK activation was induced by amyloid-β in neurons, and the derived selective JNK3 inhibitors could inhibit JNK activation induced by amyloid-β. […] Then, the experiments for JNK3 inhibitors’ effect on the viability of neurons were conducted for five 6-dihydroxy benzimidazoles (35a-35e) by comparing it with previously published resveratrol as a positive control. On the 5th day of rat primary cortical neuron differentiation, each compound was pre-treated for 90 min and then treated with 10 μM Aβ 42 (HIFP-treated) for 24 or 48 h, and cell viability was measured by MTT assay. […]

FMS = molecular target: T2, FMS (Homo sapiens, UniProt P07333); assay: Kinase panel screening 1 μM; assay type: biochemical; conditions: read-out: enzymatic inhibition FMS
T2 construct: purchased Reaction Biology Corp. (Kinase HotSpot)
T2 sequence (P07333 20-972): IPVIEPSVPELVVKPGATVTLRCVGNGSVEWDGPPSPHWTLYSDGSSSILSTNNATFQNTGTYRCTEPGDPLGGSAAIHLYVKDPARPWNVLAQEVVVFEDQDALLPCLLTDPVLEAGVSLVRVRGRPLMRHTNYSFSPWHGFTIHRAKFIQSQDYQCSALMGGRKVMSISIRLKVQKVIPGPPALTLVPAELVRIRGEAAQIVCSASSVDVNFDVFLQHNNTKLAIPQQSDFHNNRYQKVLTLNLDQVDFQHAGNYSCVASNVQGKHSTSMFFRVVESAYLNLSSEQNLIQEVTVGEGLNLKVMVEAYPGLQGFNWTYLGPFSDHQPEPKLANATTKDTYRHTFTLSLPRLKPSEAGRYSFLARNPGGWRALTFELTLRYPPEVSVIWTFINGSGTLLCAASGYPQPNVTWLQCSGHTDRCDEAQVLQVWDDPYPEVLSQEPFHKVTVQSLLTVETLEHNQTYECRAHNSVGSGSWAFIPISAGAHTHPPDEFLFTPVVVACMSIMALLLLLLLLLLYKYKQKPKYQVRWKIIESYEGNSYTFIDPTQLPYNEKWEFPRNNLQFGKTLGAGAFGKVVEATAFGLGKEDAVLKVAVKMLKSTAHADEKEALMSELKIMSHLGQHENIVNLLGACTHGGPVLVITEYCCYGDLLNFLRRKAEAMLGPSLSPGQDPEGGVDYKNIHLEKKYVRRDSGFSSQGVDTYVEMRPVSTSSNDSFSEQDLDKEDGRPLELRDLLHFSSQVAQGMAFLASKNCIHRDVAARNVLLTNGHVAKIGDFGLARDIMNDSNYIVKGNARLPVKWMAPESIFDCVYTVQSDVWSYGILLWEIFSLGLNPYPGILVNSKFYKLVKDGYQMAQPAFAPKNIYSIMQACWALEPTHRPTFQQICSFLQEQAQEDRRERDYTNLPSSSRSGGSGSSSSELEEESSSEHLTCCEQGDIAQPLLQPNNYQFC

c-jun = assay: Amyloid-β-induced JNK activation (c-jun phosphorylation) in neurons; assay type: cell-based; conditions: rat primary cortical neurons
Excerpt: as §1

CAMKK1 = molecular target: T3, CAMKK1 (Homo sapiens, UniProt Q8N5S9); assay: Kinase panel screening 1 μM; assay type: biochemical; conditions: read-out: enzymatic inhibition CAMKK1
T3 construct: purchased Reaction Biology Corp. (Kinase HotSpot)
T3 sequence (Q8N5S9 whole entry): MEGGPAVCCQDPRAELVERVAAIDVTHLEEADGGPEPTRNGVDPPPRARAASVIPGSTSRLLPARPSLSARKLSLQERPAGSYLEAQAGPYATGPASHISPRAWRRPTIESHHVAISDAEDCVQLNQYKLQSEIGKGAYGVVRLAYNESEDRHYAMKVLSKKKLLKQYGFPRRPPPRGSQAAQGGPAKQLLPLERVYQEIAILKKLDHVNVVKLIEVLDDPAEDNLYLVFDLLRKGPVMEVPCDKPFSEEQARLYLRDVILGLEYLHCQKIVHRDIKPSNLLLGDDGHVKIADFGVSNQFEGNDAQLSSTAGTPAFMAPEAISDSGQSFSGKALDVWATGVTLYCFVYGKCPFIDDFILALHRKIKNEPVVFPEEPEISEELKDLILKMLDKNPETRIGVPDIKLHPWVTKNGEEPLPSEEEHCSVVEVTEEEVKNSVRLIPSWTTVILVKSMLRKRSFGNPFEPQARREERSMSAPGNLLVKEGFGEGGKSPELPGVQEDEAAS

PKA = molecular target: T4, PKA (Homo sapiens, UniProt P17612); assay: Kinase panel screening 1 μM; assay type: biochemical; conditions: read-out: enzymatic inhibition PKA
T4 construct: purchased Reaction Biology Corp. (Kinase HotSpot)

[1] = system: primary rat cortical neuron; assay: Cell viability (MTT) from Aβ-induced neurotoxicity; assay type: cell-based; conditions: for Neuroprotection: Aβ-induced primary rat cortical neuronal death
Excerpt: To establish whether the derived selective JNK3 inhibitor actually has the ability to protect neurons from amyloid β-induced neuronal cell death, which is known as the pathogenesis of Alzheimer’s disease, we performed cytotoxicity experiments using Aβ 42, which is known as the most toxic fragment of the amyloid protein. The amyloid-β is known to mainly cause apoptosis during cell death, so it was confirmed whether the derived selective JNK3 inhibitors affect the activation (cleavage) of caspase-3, which are apoptosis-related signaling substances. […] This means that selective JNK3 inhibitors can inhibit apoptosis signaling by amyloid-β in neurons, thereby inhibiting apoptosis. Additionally, we confirmed that JNK activation was induced by amyloid-β in neurons, and the derived selective JNK3 inhibitors could inhibit JNK activation induced by amyloid-β. […] Then, the experiments for JNK3 inhibitors’ effect on the viability of neurons were conducted for five 6-dihydroxy benzimidazoles (35a-35e) by comparing it with previously published resveratrol as a positive control. On the 5th day of rat primary cortical neuron differentiation, each compound was pre-treated for 90 min and then treated with 10 μM Aβ 42 (HIFP-treated) for 24 or 48 h, and cell viability was measured by MTT assay.
In initial experiments, rat hippocampal cells grown in serum-free neurobasal media containing B27 supplements at day 6 were treated with different concentrations of Aβ1–42 or Aβ1–40 for 24 h and then the cell viability was measured by colorimetric MTT assay. Aggregated Aβ1–42 and Aβ1–40 caused up to 40–60% cell death at concentrations ranging from […]. […] Resveratrol was active against various amyloid-related peptides including Aβ1–42, the most neurotoxic amyloid derivative present in the AD brain. […] Primary Rat Cortex Neurons, Sprague Dawley (Gibco, A36512, Fisher Scientific, Göteborg, Sweden), were cultured in Neurobasal™ Plus culture medium (Gibco, A3582901 Fisher Scientific, Göteborg, Sweden), supplemented with B-27™ Supplement (Gibco, A3582801 Fisher Scientific, Göteborg, Sweden) and 0.5 mM GlutaMAX™ Supplement (Gibco, 35050061 Fisher Scientific, Göteborg, Sweden) at 37 °C in a humidified 5% CO2 atmosphere. We plated –2 × 10^5 live cells per well in a poly-D-lysine/laminin coated 24-well plate. For neural differentiation, half of the medium was replaced with fresh complete medium every third day. On day 6, we removed half the volume of media from the culture plate, added an equal amount of complete culture media containing test compounds or vehicle to each well, and incubated them for 90 min at 37 °C and 5% CO2. Immediately prior to use, amyloid β-Protein (1–42) (HFIP-treated) (Bachem, 4090148.0100) was dissolved in 1% NH4OH, further diluted with culture medium, and added into the plates to a final concentration of 10 μM. Cells were incubated for 24 h with vehicle control or test compounds in the presence or absence of Aβ42. Cell viability was measured using the MTT [3-(4, 5-dimethylthiazol-2-yl)-2,5-diphenyltetrazolium bromide] assay. MTT solution was added into each well at a final concentration of 0.5 mg/mL, and cells were incubated at 37 °C for 4 h. The absorbance was detected at 540 nm (reference 650 nm) with a microplate reader. All results were normalized to OD values measured from the vehicle control (DMSO). […]
Primary Rat Cortex Neurons, Sprague Dawley (Gibco, A36512) were cultured in Neurobasal™ Plus culture medium (Gibco, A3582901), supplemented with B-27™ Supplement (Gibco, A3582801) and 0.5mM GlutaMAX™ Supplement (Gibco, 35050061) at 37 °C in a humidified 5% CO2 atmosphere. Plate ~2 × 10^5 live cells per well in a poly-D-lysine/laminin coated 24-well plate. For neural differentiation, half of the medium was replaced with fresh complete medium every third day. On day 6, remove half the volume of media from the culture plate and add an equal amount of complete culture media […]

CDK1/cyclin A = molecular target: T5, CDK1/cyclin A (Homo sapiens, UniProt P06493); assay: Kinase panel screening 1 μM; assay type: biochemical; conditions: read-out: enzymatic inhibition CDK1/cyclin A
T5 construct: purchased Reaction Biology Corp. (Kinase HotSpot)
T5 sequence (P06493 whole entry): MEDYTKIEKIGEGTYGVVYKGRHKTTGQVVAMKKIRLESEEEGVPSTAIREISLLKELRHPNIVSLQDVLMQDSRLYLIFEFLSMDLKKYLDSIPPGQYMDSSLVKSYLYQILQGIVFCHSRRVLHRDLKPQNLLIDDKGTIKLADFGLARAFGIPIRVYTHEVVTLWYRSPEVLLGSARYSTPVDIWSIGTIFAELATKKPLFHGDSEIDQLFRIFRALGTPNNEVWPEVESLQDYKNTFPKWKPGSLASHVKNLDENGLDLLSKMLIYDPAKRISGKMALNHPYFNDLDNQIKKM
T5 sequence (P20248 whole entry partner): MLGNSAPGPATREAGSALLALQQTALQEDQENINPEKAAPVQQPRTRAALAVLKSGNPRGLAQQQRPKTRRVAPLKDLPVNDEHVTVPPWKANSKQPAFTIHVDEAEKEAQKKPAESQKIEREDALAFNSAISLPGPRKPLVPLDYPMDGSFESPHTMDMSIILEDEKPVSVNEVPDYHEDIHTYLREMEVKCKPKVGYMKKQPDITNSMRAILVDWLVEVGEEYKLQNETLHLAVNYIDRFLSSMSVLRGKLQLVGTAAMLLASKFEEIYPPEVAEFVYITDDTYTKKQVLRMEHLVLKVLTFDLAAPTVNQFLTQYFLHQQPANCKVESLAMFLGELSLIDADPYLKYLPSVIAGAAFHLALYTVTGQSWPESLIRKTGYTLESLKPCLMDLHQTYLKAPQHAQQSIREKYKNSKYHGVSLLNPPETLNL

T1 sequence (P07948 whole entry): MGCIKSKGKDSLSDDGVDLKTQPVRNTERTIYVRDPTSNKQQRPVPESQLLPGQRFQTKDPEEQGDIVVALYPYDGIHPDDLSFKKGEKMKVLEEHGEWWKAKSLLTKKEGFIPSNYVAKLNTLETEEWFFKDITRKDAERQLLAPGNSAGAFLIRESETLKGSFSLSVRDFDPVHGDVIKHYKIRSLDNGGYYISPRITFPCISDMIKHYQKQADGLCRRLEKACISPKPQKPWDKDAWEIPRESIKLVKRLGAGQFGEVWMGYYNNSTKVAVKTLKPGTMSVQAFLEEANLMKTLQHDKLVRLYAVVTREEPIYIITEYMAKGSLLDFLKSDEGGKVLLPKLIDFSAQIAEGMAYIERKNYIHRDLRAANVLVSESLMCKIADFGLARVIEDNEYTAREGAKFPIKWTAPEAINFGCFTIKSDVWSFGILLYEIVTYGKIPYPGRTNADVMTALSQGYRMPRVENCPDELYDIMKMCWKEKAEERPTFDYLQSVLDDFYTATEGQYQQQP

O=C(C1CC1)N1CCC[C@H](Nc2nccc(-n3c(-c4ccc5c(c4)OCCO5)nc4cc(O)c(O)cc43)n2)C1 [35b, (S)-Cyclopropyl(3-((4-(2-(2,3-dihydrobenzo[b][1,4]dioxin-6-yl)-5,6-dihydroxy-1H-benzo[d]imidazol-1-yl)pyrimidin-2-yl)amino)piperidin-1-yl)methanone]
inhibition at 1 µM (LYN): 10.8%
activation (cleavage) of caspase-3 by amyloid-β (caspase-3): inhibited the activation of caspase-3
inhibition at 1 µM (FMS): 8.11%
phosphorylation of c-jun induced by amyloid-β (c-jun): inhibit phosphorylation of c-jun
inhibition at 1 µM (CAMKK1): 0%
inhibition at 1 µM (PKA): 0%
Neuroprotection [1]: 95.7%
Neuroprotection ([1]; listed as Present report): > 95.7 ± 2.9%
Cell viability, Mean ([1]; pre-treated 90 min, then 10 μM Aβ42, MTT, normalized to vehicle control (DMSO), compound concentration not given): 95.7 ± 2.9%
inhibition at 1 µM (CDK1/cyclin A): 0%
